From ChEMBL document CHEMBL5500370, “Discovery of potent and novel dual NAMPT/BRD4 inhibitors for efficient treatment of hepatocellular carcinoma” (Eur J Med Chem, 2024)
pIC50: −log10 of the molar value. The source made the active and inactive calls. The rule behind the calls is not given here.

Tests used:
HCCLM3 [1] = test: Antiproliferative activity against NAMN-treated human HCCLM3 cells incubated for 120 hrs by MTT assay; type: functional, cell-based
Hep 3B2 [2] = test: Induction of apoptosis in human Hep3B cells assessed as necrotic cells at 5 uM measured after 72 hrs by Annexin V-FITC/PI staining based flow cytometry (reference value: 2.74 %); type: functional
[3] = target: Bromodomain-containing protein 3 (Homo sapiens, UniProt Q15059); test: Inhibition of BRD3 BD1/2 (unknown origin) incubated for 120 mins by TR-FRET assay
Hep 3B2 [4] = test: Induction of cell cycle arrest at G2/M phase in human Hep3B cells at 5 uM measured after 72 hrs by PI/RNase staining based flow cytometry (reference value: 11.37 %); type: functional
Hep 3B2 [5] = test: Induction of apoptosis in human Hep3B cells assessed as viable cells at 10 uM measured after 72 hrs by Annexin V-FITC/PI staining based flow cytometry (reference value: 94.08 %); type: functional; conditions: Homo sapiens, Hep3B, read-out: Activity
Hep 3B2 [6] = test: Antiproliferative activity against NMN-treated human Hep3B cells incubated for 120 hrs by MTT assay; type: functional, cell-based
[7] = target: T1, Bromodomain-containing protein 4 (Homo sapiens, UniProt O60885); test: Inhibition of BRD4 (unknown origin) incubated for 120 mins by TR-FRET assay
HCCLM3 [8] = test: Antiproliferative activity against NMN/NAMN-treated human HCCLM3 cells incubated for 120 hrs by MTT assay; type: functional, cell-based
[9] = target: T1, Bromodomain-containing protein 4; test: Inhibition of BRD4 BD2 (unknown origin) incubated for 120 mins by TR-FRET assay
[10] = target: T1, Bromodomain-containing protein 4; test: Inhibition of BRD4 in human Hep3B cells assessed as decrease in c-Myc level at 1 to 10 uM measured after 72 hrs by immunoblot analysis; type: cell-based; conditions: dose 1-10 µM
Hep 3B2 [11] = test: Antimigratory activity in human Hep3B cells measured upto 24 hrs by transwell assay; type: functional, cell-based; conditions: dose 1-10 µM
Hep 3B2 [12] = test: Induction of apoptosis in human Hep3B cells assessed as necrotic cells at 10 uM measured after 72 hrs by Annexin V-FITC/PI staining based flow cytometry (reference value: 2.74 %); type: functional
[13] = target: Nicotinamide phosphoribosyltransferase (Homo sapiens, UniProt P43490); test: Inhibition of NAMPT in human HCCLM3 cells assessed as decrease in NAD+ level at 10 uM measured after 72 hrs by WST-8 assay; type: cell-based
Hep 3B2 [14] = test: Downregulation of NAMPT level in human Hep3B cells at 1 to 10 uM measured after 72 hrs by immunoblot analysis; type: functional, cell-based; conditions: dose 1-10 µM
HCCLM3 [15] = test: Antitumor activity against human HCCLM3 cells xenografted in BALB/c nude mouse at 80 mg/kg, ip for 27 days relative to control; type: functional; conditions: HCCLM3, 648 h, time 27 day, read-out: TGI
Hep 3B2 [16] = test: Induction of cell cycle arrest at S phase in human Hep3B cells at 1 uM measured after 72 hrs by PI/RNase staining based flow cytometry (reference value: 31.90 %); type: functional
Hep 3B2 [17] = test: cells; conditions: Homo sapiens, Hep3B, 120 h
HCCLM3 [18] = test: cells; conditions: Homo sapiens, HCCLM3, 120 h
Hep 3B2 [19] = test: Induction of apoptosis in human Hep3B cells assessed as late apoptotic cells at 10 uM measured after 72 hrs by Annexin V-FITC/PI staining based flow cytometry (reference value: 1.05 %); type: functional
Hep 3B2 [20] = test: Induction of apoptosis in human Hep3B cells assessed as necrotic cells at 1 uM measured after 72 hrs by Annexin V-FITC/PI staining based flow cytometry (reference value: 2.74 %); type: functional
Hep 3B2 [21] = test: Antiproliferative activity against NMN/NAMN-treated human Hep3B cells incubated for 120 hrs by MTT assay; type: functional, cell-based
[22] = target: Bromodomain-containing protein 2 (Homo sapiens, UniProt P25440); test: Inhibition of BRD2 BD1/2 (unknown origin) incubated for 120 mins by TR-FRET assay
HCCLM3 [23] = test: Antitumor activity against human HCCLM3 cells xenografted in BALB/c nude mouse at 40 mg/kg, ip for 27 days relative to control; type: functional; conditions: HCCLM3, 648 h, time 27 day, read-out: TGI
HCCLM3 [24] = test: Antitumor activity against human HCCLM3 cells xenografted in BALB/c nude mouse assessed as tumor growth suppression administered intraperitoneally for 27 days; type: functional; conditions: dose 40-80 mg/kg, route ip, time 27.0 day
Hep 3B2 [25] = test: Induction of apoptosis in human Hep3B cells assessed as late apoptotic cells at 1 uM measured after 72 hrs by Annexin V-FITC/PI staining based flow cytometry (reference value: 1.05 %); type: functional
Hep 3B2 [26] = test: Induction of cell cycle arrest at G2/M phase in human Hep3B cells at 1 uM measured after 72 hrs by PI/RNase staining based flow cytometry (reference value: 11.37 %); type: functional
Hep 3B2 [27] = test: Induction of apoptosis in human Hep3B cells assessed as viable cells at 5 uM measured after 72 hrs by Annexin V-FITC/PI staining based flow cytometry (reference value: 94.08 %); type: functional; conditions: read-out: Activity
Hep 3B2 [28] = test: Induction of apoptosis in human Hep3B cells assessed as early apoptotic cells at 5 uM measured after 72 hrs by Annexin V-FITC/PI staining based flow cytometry (reference value: 2.13 %); type: functional
[29] = target: T1, Bromodomain-containing protein 4; test: Inhibition of BRD4 BD1/2 (unknown origin) incubated for 120 mins by TR-FRET assay
Hep 3B2 [30] = test: Induction of cell cycle arrest at G0/G1 phase in human Hep3B cells at 1 uM measured after 72 hrs by PI/RNase staining based flow cytometry (reference value: 56.73 %); type: functional
Hep 3B2 [31] = test: Downregulation of NAPRT level in human Hep3B cells at 1 to 10 uM measured after 72 hrs by immunoblot analysis; type: functional, cell-based; conditions: dose 1-10 µM
Hep 3B2 [32] = test: Induction of cell cycle arrest at G0/G1 phase in human Hep3B cells at 10 uM measured after 72 hrs by PI/RNase staining based flow cytometry (reference value: 56.73 %); type: functional
HCCLM3 [33] = test: In vivo inhibition of NAMPT in human HCCLM3 cells xenografted in BALB/c nude mouse assessed as reduction in NAD+ level in tumor tissue administered intraperitoneally for 27 days; type: functional, organism-based; conditions: dose 40-80 mg/kg, route ip, time 27.0 day
Hep 3B2 [34] = test: Induction of cell cycle arrest at G2/M phase in human Hep3B cells at 10 uM measured after 72 hrs by PI/RNase staining based flow cytometry (reference value: 11.37 %); type: functional
Hep 3B2 [35] = test: Antimigratory activity in human Hep3B cells measured upto 24 hrs by wound healing assay; type: functional, cell-based; conditions: dose 1-10 µM
HCCLM3 [36] = test: Antiproliferative activity against NMN-treated human HCCLM3 cells incubated for 120 hrs by MTT assay; type: functional, cell-based
[37] = target: T1, Bromodomain-containing protein 4; test: Inhibition of BRD4 BD1 (unknown origin) incubated for 120 mins by TR-FRET assay
[38] = Antiproliferative activity against human LX2 cells incubated for 120 hrs by MTT assay; type: toxicity, cell-based; conditions: LX-2 cells
Hep 3B2 [39] = test: Antiproliferative activity against NAMN-treated human Hep3B cells incubated for 120 hrs by MTT assay; type: functional, cell-based
Hep 3B2 [40] = test: Induction of cell cycle arrest at S phase in human Hep3B cells at 10 uM measured after 72 hrs by PI/RNase staining based flow cytometry (reference value: 31.90 %); type: functional

Nicotinamide phosphoribosyltransferase, sequence (P43490 whole entry, looked up): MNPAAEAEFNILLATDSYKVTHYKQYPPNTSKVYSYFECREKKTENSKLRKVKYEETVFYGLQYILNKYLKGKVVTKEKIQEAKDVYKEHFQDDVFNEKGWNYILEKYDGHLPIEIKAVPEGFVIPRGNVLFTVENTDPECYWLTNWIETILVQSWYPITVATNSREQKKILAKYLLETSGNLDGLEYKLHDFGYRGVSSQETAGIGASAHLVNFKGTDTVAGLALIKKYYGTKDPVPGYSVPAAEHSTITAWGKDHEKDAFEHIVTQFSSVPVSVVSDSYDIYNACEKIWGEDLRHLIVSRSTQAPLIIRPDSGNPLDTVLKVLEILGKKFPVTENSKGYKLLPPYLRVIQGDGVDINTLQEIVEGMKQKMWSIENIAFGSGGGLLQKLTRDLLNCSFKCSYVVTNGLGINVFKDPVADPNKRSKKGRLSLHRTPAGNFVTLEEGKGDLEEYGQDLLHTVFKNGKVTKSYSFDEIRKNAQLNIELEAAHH
Bromodomain-containing protein 3, sequence (Q15059 whole entry): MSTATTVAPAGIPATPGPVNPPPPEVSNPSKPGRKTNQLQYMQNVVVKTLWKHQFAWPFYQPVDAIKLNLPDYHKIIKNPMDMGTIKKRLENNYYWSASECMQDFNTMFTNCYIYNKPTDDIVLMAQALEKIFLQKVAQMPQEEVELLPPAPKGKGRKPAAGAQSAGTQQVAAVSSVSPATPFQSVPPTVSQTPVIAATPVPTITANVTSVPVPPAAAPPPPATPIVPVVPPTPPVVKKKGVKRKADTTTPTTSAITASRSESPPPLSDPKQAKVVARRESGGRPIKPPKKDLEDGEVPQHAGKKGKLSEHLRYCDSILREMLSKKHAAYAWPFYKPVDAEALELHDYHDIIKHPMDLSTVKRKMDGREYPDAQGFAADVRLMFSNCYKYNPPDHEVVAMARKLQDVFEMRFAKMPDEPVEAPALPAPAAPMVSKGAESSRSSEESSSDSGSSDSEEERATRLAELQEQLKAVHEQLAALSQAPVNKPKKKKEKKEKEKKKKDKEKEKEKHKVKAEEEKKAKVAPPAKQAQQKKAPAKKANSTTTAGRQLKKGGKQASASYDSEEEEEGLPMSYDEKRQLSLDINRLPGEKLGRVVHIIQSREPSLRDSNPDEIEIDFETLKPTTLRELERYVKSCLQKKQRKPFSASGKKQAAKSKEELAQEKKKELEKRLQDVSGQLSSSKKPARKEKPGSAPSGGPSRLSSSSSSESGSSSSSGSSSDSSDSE
Bromodomain-containing protein 2, sequence (P25440 whole entry): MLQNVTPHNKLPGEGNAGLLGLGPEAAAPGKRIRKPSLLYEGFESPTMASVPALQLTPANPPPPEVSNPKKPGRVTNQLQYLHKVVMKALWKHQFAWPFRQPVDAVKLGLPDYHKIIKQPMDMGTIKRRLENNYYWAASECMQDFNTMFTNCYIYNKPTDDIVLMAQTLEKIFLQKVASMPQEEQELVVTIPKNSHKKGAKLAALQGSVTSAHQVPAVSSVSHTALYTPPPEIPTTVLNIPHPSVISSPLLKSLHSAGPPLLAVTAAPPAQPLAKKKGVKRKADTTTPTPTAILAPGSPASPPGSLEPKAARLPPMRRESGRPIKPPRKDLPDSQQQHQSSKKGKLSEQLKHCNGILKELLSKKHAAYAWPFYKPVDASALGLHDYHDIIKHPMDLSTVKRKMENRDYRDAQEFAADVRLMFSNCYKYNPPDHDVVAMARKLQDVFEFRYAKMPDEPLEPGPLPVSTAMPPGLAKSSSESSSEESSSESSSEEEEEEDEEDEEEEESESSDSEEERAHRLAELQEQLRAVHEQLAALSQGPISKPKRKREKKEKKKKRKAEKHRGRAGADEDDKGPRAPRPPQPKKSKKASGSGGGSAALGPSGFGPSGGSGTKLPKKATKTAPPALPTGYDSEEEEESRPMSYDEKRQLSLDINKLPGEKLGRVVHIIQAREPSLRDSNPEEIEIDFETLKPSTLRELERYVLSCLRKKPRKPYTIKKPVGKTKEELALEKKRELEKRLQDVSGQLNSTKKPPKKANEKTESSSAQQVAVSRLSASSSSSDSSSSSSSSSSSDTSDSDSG

Cc1sc2c(c1C)C(c1ccc(Cl)cc1)=N[C@@H](CC(=O)NCCCNC(=O)/C=C/c1cccnc1)c1nnc(C)n1-2
Activity (HCCLM3 [1]): inactive | Activity (Hep 3B2 [2]): 4.6% | pIC50 [3]: 6.91 | Activity (Hep 3B2 [4]): 8.35% | viability at 10 µM (Hep 3B2 [5]): 72.1% | Activity (Hep 3B2 [6]): inactive | pIC50 [7]: 7.24 | Activity (HCCLM3 [8]): inactive | pIC50 [9]: 7.39 | inhibition [10]: Active | Activity (Hep 3B2 [11]): Dose-Dependent Effect | Activity (Hep 3B2 [12]): 2.43% | inhibition [13]: Active | Activity (Hep 3B2 [14]): Active | inhibition in vivo at 80 mg/kg (HCCLM3 [15]): 58.2% | Activity (Hep 3B2 [16]): 24.18% | pIC50 (Hep 3B2 [17]): 5.63 | pIC50 (HCCLM3 [18]): 5.26 | Activity (Hep 3B2 [19]): 6.56% | Activity (Hep 3B2 [20]): 2.69% | Activity (Hep 3B2 [21]): inactive | pIC50 [22]: 6.31 | inhibition in vivo at 40 mg/kg (HCCLM3 [23]): 37.2% | Activity (HCCLM3 [24]): Dose-Dependent Effect | Activity (Hep 3B2 [25]): 4.58% | Activity (Hep 3B2 [26]): 9.76% | viability at 5 µM (Hep 3B2 [27]): 74.7% | Activity (Hep 3B2 [28]): 14.49% | pIC50 [29]: 7.24 | Activity (Hep 3B2 [30]): 66.06% | Activity (Hep 3B2 [31]): Active | Activity (Hep 3B2 [32]): 76.25% | Activity (HCCLM3 [33]): Active | Activity (Hep 3B2 [34]): 5.54% | Activity (Hep 3B2 [35]): Dose-Dependent Effect | Activity (HCCLM3 [36]): inactive | pIC50 [37]: 7.92 | IC50 at 120 h [38]: 9510 nM | Activity (Hep 3B2 [39]): inactive | Activity (Hep 3B2 [40]): 18.21%
